Results as given in patent US20080207638A1, “Compounds” (priority 2005, published 2008).
Where a name gives a salt, the structure may show the parent alone.

Experiments:
[1] = Rat pharmacokinetics; assay type: in vivo, male CD Sprague Dawley rats; conditions: 1 mg/kg i.v., 3 mg/kg oral
Experimental: Compounds were dosed to male CD Sprague Dawley rats by single intravenous or oral administration at a nominal dose level of 1 mgkg^−1 and 3 mgkg^−1 respectively. Compounds were formulated in 5% DMSO/45% PEG200/50% water. An intravenous profile was obtained by taking serial or terminal blood samples at 0.083, 0.25, 0.5, 1, 2, 4, and 7 h post-dose. An oral profile was obtained by taking serial or terminal blood samples at 0.25, 0.5, 1, 2, 4, 7 and 12 h post-dose. Blood samples were taken directly into heparinised tubes. Blood samples were prepared by protein precipitation and subjected to quantitative analysis by LC-MS/MS using compound-specific mass transitions. Drug concentration-time profiles were generated and non-compartmental PK analysis used to generate estimates of half-life, clearance, volume of distribution and oral bioavailability.

[2] = Dog pharmacokinetics; assay type: in vivo, male Beagle dogs; conditions: 1 mg/kg i.v., 2 mg/kg oral
Experimental: Compounds were dosed to male Beagle dogs by single intravenous or oral administration at a nominal dose level of 1 mgkg^−1 and 2 mgkg^−1 respectively. The study was carried out according to a crossover design such that the same dog was used for both dosing events and the dosing events occurred 1 week apart. Compounds were formulated in 5%DMSO/45%Peg2oO/50%water. An intravenous profile was obtained by taking serial blood samples at 0.083, 0.25, 0.5, 0.75, 1, 2, 4, 6 & 12 h post-dose. An oral profile was obtained by taking serial blood samples at 0.25, 0.5, 0.75, 1, 2, 4, 6, 12 & 24 h post-dose. Blood samples were taken directly into heparinised tubes. Blood samples were prepared by protein precipitation and subjected to quantitative analysis by LC-MS/MS using compound-specific mass transitions. Drug concentration-time profiles were generated and non-compartmental PK analysis used to generate estimates of half-life, clearance, volume of distribution and oral bioavailability.

[3] = CNS penetration; assay type: in vivo, male CD Sprague Dawley rats; conditions: male, CD Sprague Dawley, iv; rat, 1 mg/kg i.v., brain 5 min post-dose
Experimental: Compounds were dosed intravenously at a nominal dose level of 1 mgkg−1 to male CD Sprague Dawley rats. Compounds were formulated in 5% DMSO/45% PEG200/50% water. Blood samples were taken under terminal anaesthesia with isoflurane at 5 min post-dose and the brains were also removed for assessment of brain penetration. Blood samples were taken directly into heparinised tubes. Blood samples were prepared for analysis using protein precipitation and brain samples were prepared using extraction of drug from brain by homogenisation and subsequent protein precipitation. The concentration of parent drug in blood and brain extracts was determined by quantitative LC-MS/MS analysis using compound-specific mass transitions.

oral bioavailability [1]: approximately 48 % F | oral bioavailability [2]: approximately 100 % F | concentration at 5 min [3]: ~57.5 ng/g
Compound: C[C@@H]1CCCN1CCCOc1ccc(N2CCN(C(=O)c3ccc(F)cc3F)CC2=O)cc1 [Example E1, 4-[(2,4-Difluorophenyl)carbonyl]-1-[4-({3-[(2R)-2-methyl-1-pyrrolidinyl]propyl)oxy)phenyl]-2-piperazinone, formate salt]
